Measurements published in ChEMBL document CHEMBL3137667, “[Drug-induced liver injury; fourteenth updated edition of the bibliographic database of liver injuries and related drugs]” (Gastroenterol Clin Biol, 2004).

Assays:
[1] = Highest frequency of moderate liver toxicity observed during clinical trials, expressed as a percentage. [column '% BIOL' in source]; settings: human
[2] = Highest frequency of acute liver toxicity observed during clinical trials, expressed as a percentage. [column '% AIGUE' in source]; settings: human
[3] = human, serum
[4] = human, serum; remark: listed apart in the source
[5] = human
[6] = human; remark: listed apart in the source
[7] = human; remark: listed apart in the source
[8] = human, serum, 4383 h
[9] = human; remark: listed apart in the source
[10] = human; remark: listed apart in the source
[11] = human; remark: listed apart in the source
[12] = human; remark: listed apart in the source
[13] = human; remark: listed apart in the source
[14] = human; remark: listed apart in the source
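For Hepatotoxicity (association with vascular disease) in this document: count of indexed literature references reporting vascular liver injury in humans, e.g. peliosis hepatitis, hepatic veno-occlusive disease or Budd-Chiari syndrome.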
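For Hepatotoxicity (benign tumour) in this document: value is a count of indexed literature references citing a benign tumour confirmed by histopathology.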
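For Hepatotoxicity (choleostasis) in this document: human cholestatic liver injury, shown by histopathology or by peak ALT or AST elevation over alkaline phosphatase ratio below 2, value counts indexed literature reports.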
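For Hepatotoxicity (chronic liver disease) in this document: chronic liver injury confirmed by histopathology or persistently raised serum aminotransferase activity beyond 6 months, value given as the count of indexed literature references.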
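For Hepatotoxicity (cirrhosis) in this document: value is a count of indexed literature references reporting cirrhosis confirmed by histopathology.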
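For Hepatotoxicity (cytolytic) in this document: human cytolytic liver injury, shown by histopathology or by a ratio above 5 of peak ALT or AST elevation to alkaline phosphatase elevation, value counts indexed references.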
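For Hepatotoxicity (granulomatous hepatitis) in this document: value is a count of indexed literature references reporting granulomatous liver disease confirmed by histopathology.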
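For Hepatotoxicity (malignant tumour) in this document: malignant tumour confirmed by histopathology, value gives the count of indexed literature references reporting it.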
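For Hepatotoxicity (severe hepatitis) in this document: human clinical data: severe hepatitis, meaning potentially life-threatening liver failure or clinically observed cases, the value counts how many indexed literature references report it.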
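For Hepatotoxicity (steatosis) in this document: steatosis confirmed by histopathology, value is the count of indexed references.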

SMILES | Hepatotoxicity (moderate) [1] [%] | Hepatotoxicity (acute) [2] [%] | Hepatotoxicity (moderate) [3] | Hepatotoxicity (acute) [4] | Hepatotoxicity (cytolytic) [5] | Hepatotoxicity (choleostasis) [6] | Hepatotoxicity (severe hepatitis) [7] | Hepatotoxicity (chronic liver disease) [8] | Hepatotoxicity (cirrhosis) [9] | Hepatotoxicity (granulomatous hepatitis) [10] | Hepatotoxicity (association with vascular disease) [11] | Hepatotoxicity (steatosis) [12] | Hepatotoxicity (malignant tumour) [13] | Hepatotoxicity (benign tumour) [14]
CN1CCCN(C(c2ccccc2)c2ccc(Cl)cc2)CC1 (stereo unspecified) [HOMOCHLORCYCLIZINE] | 0 | 0 | 0 | 1 | 1 | 1 | 0 | 0 | 0 | 0 | 0 | 0 | 0 | 0
CC(=O)[C@@]1(O)CC[C@H]2[C@@H]3CCC4=CC(=O)CC[C@]4(C)[C@H]3CC[C@@]21C [HYDROXYPROGESTERONE] | 0 | 0 | 0 | 1 | 0 | 1 | 0 | 0 | 0 | 0 | 0 | 0 | 0 | 0
CCCCCN(C)CCC(O)(P(=O)(O)O)P(=O)(O)O [IBANDRONIC ACID] | 0.6 | 0 | 1 | 0 | 0 | 0 | 0 | 0 | 0 | 0 | 0 | 0 | 0 | 0
CC(C)(N)C(=O)N[C@H](COCc1ccccc1)C(=O)N1CCC2(CC1)CN(S(C)(=O)=O)c1ccccc12 [IBUTAMOREN] | 21.4 | 0 | 1 | 0 | 0 | 0 | 0 | 0 | 0 | 0 | 0 | 0 | 0 | 0
COC1=C(OC)C(=O)C(CCCCCCCCCCO)=C(C)C1=O [IDEBENONE] | 2.3 | 0 | 1 | 0 | 0 | 0 | 0 | 0 | 0 | 0 | 0 | 0 | 0 | 0
O=P1(NCCCl)OCCCN1CCCl (stereo unspecified) [IFOSFAMIDE] | 3.8 | 6 | 3 | 2 | 2 | 0 | 1 | 0 | 0 | 0 | 0 | 0 | 0 | 0
Cc1cnc(NCCCN(C)C)c2c1[nH]c1ccc3cc(O)ccc3c12 [INTOPLICINE] | 0 | 3.8 | 0 | 1 | 0 | 0 | 0 | 0 | 0 | 0 | 0 | 0 | 0 | 0
O=C(CCOCCOCCOCCOCCC(=O)Nc1c(I)cc(I)c(C(=O)O)c1I)Nc1c(I)cc(I)c(C(=O)O)c1I [IODOXAMIC ACID] | 0 | 0 | 1 | 1 | 0 | 0 | 0 | 0 | 0 | 0 | 0 | 0 | 0 | 0
O=C(COCC(=O)Nc1c(I)cc(I)c(C(=O)O)c1I)Nc1c(I)cc(I)c(C(=O)O)c1I [IOGLYCAMIC ACID] | 0 | 0 | 1 | 0 | 0 | 0 | 0 | 0 | 0 | 0 | 0 | 0 | 0 | 0
